The values that follow come from patent US11623869B2 (UNIVERSIDADE ESTADUAL DE CAMPINAS—UNICAMP, priority 2017, dated 2023).

This experiment deals with non-muscle invasive bladder cancer (CBNMI). Briefly: Adjuvancy of intravesical MRB-CFI-1 and systemic cisplatin in NMIBC rats, histopathology. The class given is in vivo, Fischer 344 female rats. From the text:
The protocol for use of animals in research was approved by the Ethics Committee on the Use of Animals (CEUA)—UNICAMP (protocol number: 4324-1).

The mark [1] stands for this setting: MNU rats, MRB-CFI-1 intravesical 20 mg/kg 6 weeks and/or cisplatin i.p. […] weekly 4 weeks, n = 7.

`N.N.[Cl][Pt][Cl]` [cisplatin]: under “MNU rats, same treatments”, the “decrease in the progression of urothelial neoplastic lesions, percentage of animals” value amounted to 14.28%. Under setting [1], the “Carcinoma in situ (Ptis), percentage of animals” value was determined as 14.28%; the “Papillary carcinoma (pTa), percentage of animals” value was found to be 57.14%; the “Papilliferous hyperplasia, percentage of animals” value came out at 14.28%; the “Urothelial carcinoma with lamina propria invasion (pT1), percentage of animals” value amounted to 14.28%. Under “same treatments, of n = 7”, the “Carcinoma in situ (Ptis), number of animals” value amounted to 1; the “Papillary carcinoma (pTa), number of animals” value worked out at 4; the “Papilliferous hyperplasia, number of animals” value is listed as 1; the “Urothelial carcinoma with lamina propria invasion (pT1), number of animals” value was determined as 1.
